19 compounds from ChEMBL document CHEMBL3734759, “Discovery of a new class of histone deacetylase inhibitors with a novel zinc binding group” (Medchemcomm, 2015) can be followed below.

For orientation: inhibition means the percentage by which the read-out fell short of the control. What is called IC50 is the concentration that gives 50% inhibition. The term Kd denotes the constant that tells how readily two partners part at equilibrium. As a reminder, the logP is the decadic logarithm of the partition coefficient of the neutral form, usually between octanol and water. Low values mean lower lipophilicity, high ones higher lipophilicity.

For data set [1], the target named is Histone deacetylase 2 (Homo sapiens) (UniProt Q92769). As to conditions: at 20 µM; call rule not given here.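 Also: recombinant enzyme activity measured with the fluorogenic acetylated lysine substrate Boc-Lys(Ac)-AMC, read on a microplate reader after 30–60 min.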
Data set [2] in a line: Cytotoxicity against human MV411 cells assessed as growth inhibition after 24 hrs by MTS assay. Format: functional, cell-based, MV4-11.
Data set [3] concerns the target Histone deacetylase 3 (Homo sapiens) (UniProt O15379). As to conditions: at 20 µM.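 Also: recombinant enzyme assay with Boc-Lys(Ac)-AMC substrate, fluorescence read on a microplate reader after 30–60 min incubation.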
Description: Inhibition of human recombinant HDAC3 at 20 uM using Boc-Lys(Ac)-AMC as substrate after 30 to 60 mins by microplate reader assay
A short description of data set [4]: Binding affinity to Zn2+ assessed as Zn2+/compound complex formation by ITC analysis. In general terms: ITC needs no label: the signal is the heat of the interaction.
The target in data set [5] is T1, Histone deacetylase (Homo sapiens) (UniProt Q13547+O15379+Q9UBN7+Q92769+Q9UQL6+Q8WUI4+Q9BY41+Q96DB2+P56524+Q9UKV0+Q969S8). Kind of data set: Inhibition of HDAC in human MV411 cells assessed as up regulation of p21 WAF1/CIP1 expression after 4 hrs by western blot analysis. In kind it is cell-based. To be noted: MV4-11.
Data set [6] in a line: Lipophilicity, LogP of the compound. In kind it is physicochemical. To be noted: octanol/water.
Data set [7] concerns the target T1, Histone deacetylase (Homo sapiens). The data set can be described thus: Inhibition of HDAC in human MV411 cells assessed as increase in H3K9 aceylation after 4 hrs by western blot analysis. In kind it is cell-based. As to conditions: MV4-11. (In western blotting, separated proteins are transferred to a membrane and probed.)
Where [8] appears, read: Homo sapiens, MV4-11, 24 h, read-out: IC50.

Each structure is given as a SMILES string.

Sequence of Histone deacetylase 2 (Homo sapiens) (Q92769 whole entry): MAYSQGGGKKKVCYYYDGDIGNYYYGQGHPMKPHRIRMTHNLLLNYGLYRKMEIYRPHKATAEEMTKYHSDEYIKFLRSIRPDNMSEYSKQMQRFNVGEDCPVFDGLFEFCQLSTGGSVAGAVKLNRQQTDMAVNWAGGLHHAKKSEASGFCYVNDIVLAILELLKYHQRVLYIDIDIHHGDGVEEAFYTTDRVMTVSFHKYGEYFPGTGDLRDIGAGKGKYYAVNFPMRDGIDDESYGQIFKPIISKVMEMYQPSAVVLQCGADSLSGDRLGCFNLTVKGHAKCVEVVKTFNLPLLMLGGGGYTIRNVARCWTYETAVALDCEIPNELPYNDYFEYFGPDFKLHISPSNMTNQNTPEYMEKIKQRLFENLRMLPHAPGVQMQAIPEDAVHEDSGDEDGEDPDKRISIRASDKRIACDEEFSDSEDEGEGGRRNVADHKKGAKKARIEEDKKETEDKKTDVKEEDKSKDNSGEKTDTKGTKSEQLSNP
Sequence of Histone deacetylase 3 (Homo sapiens) (O15379 whole entry): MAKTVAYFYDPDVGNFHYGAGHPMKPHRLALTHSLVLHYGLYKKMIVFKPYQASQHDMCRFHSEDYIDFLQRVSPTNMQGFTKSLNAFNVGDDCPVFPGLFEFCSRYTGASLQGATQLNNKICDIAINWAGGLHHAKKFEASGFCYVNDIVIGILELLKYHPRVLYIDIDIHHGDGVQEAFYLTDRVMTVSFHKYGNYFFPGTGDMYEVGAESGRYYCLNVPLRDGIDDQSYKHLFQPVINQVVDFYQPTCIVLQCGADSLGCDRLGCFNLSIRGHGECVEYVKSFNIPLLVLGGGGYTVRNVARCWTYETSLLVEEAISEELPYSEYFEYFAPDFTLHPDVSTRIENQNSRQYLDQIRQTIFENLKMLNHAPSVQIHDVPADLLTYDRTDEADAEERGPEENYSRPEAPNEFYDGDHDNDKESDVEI

As for `O=C(Nc1ccc(-c2ccccc2)cc1)c1coc(-c2ccccc2O)n1`, the inhibition in data set [1] was 31.9%; in data set [3], 30.2%. For the same compound, the IC50 entry in data set [2] (mv4-11) is reported as “Not Active”.
`O=C(NC(c1ccccc1)c1ccccc1)c1coc(-c2ccccc2O)n1`: the Kd in data set [4] amounted to 0.203 µM. The inhibition result in data set [5] was “Dose-dependent effect”; in data set [1], 54.1%; in data set [3], 37.8%; in data set [7], “Dose-dependent effect”. In data set [6], this compound gave a logP of 3.91. Also, in data set [2] (setting [8]), the half-maximal inhibitory concentration (IC50) came to 7.5 µM.
With `O=C(NCCCCN1C(=O)c2ccccc2C1=O)c1coc(-c2ccccc2O)n1`, the inhibition in data set [1] stood at 25.4%; in data set [3], 11%.
Take `O=C(NCc1ccc(-c2ccccc2)cc1)c1coc(-c2ccccc2O)n1`: the figures for the inhibition in data set [1] and in data set [3] were 52.2% and 40.1%, respectively. The IC50 in data set [2] (setting [8]) was above 100 µM.
As to `O=C(O)c1coc(-c2ccccc2O)n1`, the inhibition stood at 54.8% in data set [1] and 38.7% in data set [3].
`O=C(NCCCCNCCC(c1ccccc1)c1ccccc1)c1coc(-c2ccccc2O)n1`: the inhibition in data set [1] is 19.7%; in data set [3] it was 18.1%.
In data set [3], `O=C(NO)C(c1ccccc1)c1ccccc1` registered an inhibition of 76.4%.
Regarding `O=C(NCCC(c1ccccc1)c1ccccc1)c1coc(-c2ccccc2O)n1`, the inhibition amounted to 28.7% in data set [1] and 37.5% in data set [3]. Moreover, the IC50 entry in data set [2] (mv4-11) is given as “Not Active”.
For the compound `CC(/C=C/C(=O)NO)=C\[C@@H](C)C(=O)c1ccc(N(C)C)cc1`, in data set [1], the inhibition was determined as 99.2%.
Take `O=C(NCCCCNC(=S)NCCC(c1ccccc1)c1ccccc1)c1coc(-c2ccccc2O)n1`: the inhibition in data set [1] came out at 1.3%; in data set [3], 3.7%.
The corresponding values for `COC(=O)c1coc(-c2ccccc2O)n1` are 30.1% and 39.1%.
Regarding `O=C(O)c1ccc(CNC(=O)c2coc(-c3ccccc3O)n2)cc1`, the values for the inhibition in data set [1] and in data set [3] were 56.5% and 39.7%, respectively.
As to `O=C(NCCCCNC(=O)C(c1ccccc1)c1ccccc1)c1coc(-c2ccccc2O)n1`, the results for the inhibition in data set [1] and in data set [3] were 0% and 4%, respectively.
As for `O=C(NCc1cccc2ccccc12)c1coc(-c2ccccc2O)n1`, the inhibition amounted to 45.2% in data set [1] and 32.3% in data set [3].
As for `O=C(NCCc1c[nH]c2ccccc12)c1coc(-c2ccccc2O)n1`, the inhibition was 36% in data set [1] and 18.9% in data set [3].
Consider `O=C(NCC(c1ccccc1)c1ccccc1)c1coc(-c2ccccc2O)n1`, for which the figures for the inhibition in data set [1] and in data set [3] were 34.8% and 23.7%, respectively. Moreover, the half-inhibitory concentration (IC50) in data set [2] (setting [8]) is 40 µM.
As to `O=C(Nc1ccccc1)c1ccc(CNC(=O)c2coc(-c3ccccc3O)n2)cc1`, the inhibition in data set [1] was determined as 41.3%; in data set [3], 15.8%.
Take `O=C(Nc1ccccc1)c1coc(-c2ccccc2O)n1`: the figures for the inhibition in data set [1] and in data set [3] were 29.5% and 22.5%, respectively. For the same compound, the IC50 in data set [2] (setting [8]) was determined as 25 µM.
For the compound `O=C(CNC(=O)c1coc(-c2ccccc2O)n1)Nc1ccccc1`, the inhibition in data set [1] came out at 32%; in data set [3] it was 36.9%.
